Marks after values point to notes of the source that are not given here.
Legend:
[1] = molecular target: human CYP2D6 (Homo sapiens, UniProt P10635); assay: Cytochrome P450 2D6 inhibition (dextromethorphan O-demethylation, pooled human hepatic microsome)
[2] = molecular target: human opioid receptor-like (ORL-1) (Homo sapiens, UniProt P41146); assay: In vitro ORL-1 receptor [35S]GTPγS functional assay; format: biochemical
[3] = system: mechanical hyperalgesia in rats subjected to partial sciatic nerve ligation; assay: Seltzer model (partial sciatic nerve ligation) of neuropathic pain, paw pressure assay (PWT); format: in vivo, rat; details: for maximum analgesic efficacy of pregabalin (10 mg/kg) as fraction of % reversal of Compound B9a: 3 hours after day 1 administration

human opioid receptor-like (ORL-1), sequence (P41146 whole entry): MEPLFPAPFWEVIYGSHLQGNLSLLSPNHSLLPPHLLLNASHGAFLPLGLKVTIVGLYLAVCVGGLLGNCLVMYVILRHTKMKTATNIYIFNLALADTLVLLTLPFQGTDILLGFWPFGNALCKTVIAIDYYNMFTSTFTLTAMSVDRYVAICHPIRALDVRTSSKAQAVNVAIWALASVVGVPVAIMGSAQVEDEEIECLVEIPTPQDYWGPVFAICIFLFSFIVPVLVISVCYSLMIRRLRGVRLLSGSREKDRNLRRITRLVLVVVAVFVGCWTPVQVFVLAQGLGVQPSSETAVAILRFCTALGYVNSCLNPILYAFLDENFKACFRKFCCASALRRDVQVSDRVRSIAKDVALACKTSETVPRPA
human CYP2D6, sequence (P10635 whole entry): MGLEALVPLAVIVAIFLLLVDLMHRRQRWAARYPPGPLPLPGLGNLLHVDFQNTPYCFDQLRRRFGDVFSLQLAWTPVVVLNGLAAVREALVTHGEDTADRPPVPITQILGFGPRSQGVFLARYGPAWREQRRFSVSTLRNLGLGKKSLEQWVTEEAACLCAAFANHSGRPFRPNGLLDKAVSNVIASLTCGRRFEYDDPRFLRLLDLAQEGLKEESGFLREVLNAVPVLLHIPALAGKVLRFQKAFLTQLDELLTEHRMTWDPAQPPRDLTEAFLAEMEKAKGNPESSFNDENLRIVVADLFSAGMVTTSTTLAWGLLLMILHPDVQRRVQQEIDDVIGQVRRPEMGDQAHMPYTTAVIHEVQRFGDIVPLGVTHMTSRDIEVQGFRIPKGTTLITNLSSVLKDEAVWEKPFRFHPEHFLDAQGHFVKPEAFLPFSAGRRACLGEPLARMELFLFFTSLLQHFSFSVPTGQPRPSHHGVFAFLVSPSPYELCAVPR

Nc1ccn(-c2nc3ccccc3n([C@H]3C[C@H]4CCC[C@@H](C3)N4[C@H]3C[C@@H]4CCC[C@@H](C4)C3)c2=O)c(=O)n1 [B5a(i), 1-((1R,1′R,3r,3′R,5S,5′S)-[3,9′-bi(9′-azabicyclo[3.3.1]nonan)]-3′-yl)-3-(4-amino-2-oxopyrimidin-1(2H)-yl)quinoxalin-2(1H)-one]
IC50 [1]: > 20 µM
EC50 [2]: > 20 µM

O=C(O)Cn1cccc(-c2nc3ccccc3n([C@H]3C[C@H]4CCC[C@@H](C3)N4C3CCCCCCCCC3)c2=O)c1=O [BB13c(iii), 2-(3-(4-((1R,3r,5S)-9-cyclodecyl-9-azabicyclo[3.3.1]nonan-3-yl)-3-oxo-3,4-dihydroquinoxalin-2-yl)-2-oxopyridin-1(2H)-yl)acetic acid]
IC50 [1]: > 20 µM
EC50 [2]: 0.101 ± 0.02 µM

O=c1cnn(-c2nc3ccccc3n([C@H]3C[C@H]4CC[C@@H](C3)N4[C@H]3C[C@@H]4CCC[C@@H](C4)C3)c2=O)c(=O)[nH]1 [Compound A9a, 2-(4-((1R,3R,5S)-8-((1R,3r,5S)-bicyclo[3.3.1]nonan-3-yl)-8-azabicyclo[3.2.1]octan-3-yl)-3-oxo-3,4-dihydroquinoxalin-2-yl)-1,2,4-triazine-3,5(2H,4H)-dione]
IC50 [1]: > 20 µM
EC50 [2]: 0.378 ± 0.055 µM

O=c1cnn(-c2nc3ccccc3n([C@H]3C[C@H]4CCC[C@@H](C3)N4[C@H]3C[C@@H]4CCC[C@@H](C4)C3)c2=O)c(=O)[nH]1 [Compound B9a]
IC50 [1]: > 20 µM
reversal compared with the pregabalin control ([3]; 1, 3, or 10 mg/kg, all measured time-points on the first day of administration): more effective reversal than the pregabalin control
effects against mechanical hyperalgesia ([3]; once daily administration (3 or 10 mg/kg) for seven days, rats with partial sciatic nerve ligation): statistically significant effects
% Reversal [mean] ([3]; rat Seltzer model, oral 1 mg/kg, 1 h after administration (day 1)): 27.0* %
% Reversal [mean] ([3]; rat Seltzer model, oral 1 mg/kg, 3 h after administration (day 1), 1 mg/kg): 37.0%
% Reversal [mean] ([3]; rat Seltzer model, oral 1 mg/kg, 5 h after administration (day 1)): 27.0* %
% Reversal [mean] ([3]; rat Seltzer model, oral 1 mg/kg, pre-administration): 0%
% Reversal [mean] ([3]; rat Seltzer model, oral 3 mg/kg once daily, 1 h after administration (day 4)): 40.8** %
% Reversal [mean] ([3]; rat Seltzer model, oral 3 mg/kg once daily, 1 h after administration (day 7)): 47.7** %
% Reversal [mean] ([3]; rat Seltzer model, oral 3 mg/kg once daily, 3 h after administration (day 4), 3 mg/kg): 46.2%
% Reversal [mean] ([3]; rat Seltzer model, oral 3 mg/kg once daily, 3 h after administration (day 7), 3 mg/kg): 55.2%
% Reversal [mean] ([3]; rat Seltzer model, oral 3 mg/kg once daily, 5 h after administration (day 4)): 36.9** %
% Reversal [mean] ([3]; rat Seltzer model, oral 3 mg/kg once daily, 5 h after administration (day 7)): 42.2** %
% Reversal [mean] ([3]; rat Seltzer model, oral 3 mg/kg, 1 h after administration (day 1)): 33.1** %
% Reversal [mean] ([3]; rat Seltzer model, oral 3 mg/kg, 3 h after administration (day 1), 3 mg/kg): 46.2%
% Reversal [mean] ([3]; rat Seltzer model, oral 3 mg/kg, 5 h after administration (day 1)): 34.6** %
% Reversal [mean] ([3]; rat Seltzer model, oral 3 mg/kg, pre-administration): 0%
% Reversal [mean] ([3]; rat Seltzer model, oral 10 mg/kg once daily, 1 h after administration (day 4)): 53.8** %
% Reversal [mean] ([3]; rat Seltzer model, oral 10 mg/kg once daily, 1 h after administration (day 7)): 50.0** %
% Reversal [mean] ([3]; rat Seltzer model, oral 10 mg/kg once daily, 3 h after administration (day 4), 10 mg/kg): 64.2%
% Reversal [mean] ([3]; rat Seltzer model, oral 10 mg/kg once daily, 3 h after administration (day 7), 10 mg/kg): 63.5%
% Reversal [mean] ([3]; rat Seltzer model, oral 10 mg/kg once daily, 5 h after administration (day 4)): 47.7** %
% Reversal [mean] ([3]; rat Seltzer model, oral 10 mg/kg once daily, 5 h after administration (day 7)): 42.2** %
% Reversal [mean] ([3]; rat Seltzer model, oral 10 mg/kg, 1 h after administration (day 1)): 49.2** %
% Reversal [mean] ([3]; rat Seltzer model, oral 10 mg/kg, 3 h after administration (day 1), 10 mg/kg): 61.5%
% Reversal [mean] ([3]; rat Seltzer model, oral 10 mg/kg, 5 h after administration (day 1)): 46.9** %
% Reversal [mean] ([3]; rat Seltzer model, oral 10 mg/kg, pre-administration): 0%
tolerance development with repeated administration ([3]; repeated administration for 7 days, rat Seltzer model): lack of tolerance development

Cc1nn(-c2nc3ccccc3n([C@H]3C[C@H]4CCC[C@@H](C3)N4[C@H]3C[C@@H]4CCC[C@@H](C4)C3)c2=O)c(=O)[nH]c1=O [Compound B10a, 2-(4-((1R,1′R,3r,3′R,5S,5′S)-[3,9′-bi(9′-azabicyclo[3.3.1]nonan)]-3′-yl)-3-oxo-3,4-dihydroquinoxalin-2-yl)-6-methyl-1,2,4-triazine-3,5(2H,4H)-dione]
IC50 [1]: > 20 µM
EC50 [2]: > 20 µM

O=c1ccn(-c2nc3ccccc3n([C@H]3C[C@H]4CCC[C@@H](C3)N4[C@H]3C[C@@H]4CCC[C@@H](C4)C3)c2=O)c(=O)[nH]1 [Compound B13a, 1-(4-((1R,1′R,3r,3′R,5S,5′S)-[3,9′-bi(9′-azabicyclo[3.3.1]nonan)]-3′-yl)-3-oxo-3,4-dihydroquinoxalin-2-yl)pyrimidine-2,4(1H,3H)-dione]
IC50 [1]: > 20 µM
EC50 [2]: > 20 µM

O=C1CN(c2nc3ccccc3n([C@H]3C[C@H]4CCC[C@@H](C3)N4[C@H]3C[C@@H]4CCC[C@@H](C4)C3)c2=O)C(=O)N1 [Compound B17a, 1-(4-((1R,1′R,3r,3′R,5S,5′S)-[3,9′-bi(9′-azabicyclo[3.3.1]nonan)]-3′-yl)-3-oxo-3,4-dihydroquinoxalin-2-yl)imidazolidine-2,4-dione]
IC50 [1]: > 20 µM
EC50 [2]: > 20 µM

CC1(C)C(=O)NC(=O)N1c1nc2ccccc2n([C@H]2C[C@H]3CCC[C@@H](C2)N3[C@H]2C[C@@H]3CCC[C@@H](C3)C2)c1=O [Compound B19a, 1-(4-((1R,1′R,3r,3′R,5S,5′S)-[3,9′-bi(9′-azabicyclo[3.3.1]nonan)]-3′-yl)-3-oxo-3,4-dihydroquinoxalin-2-yl)-5,5-dimethylimidazolidine-2,4-dione]
IC50 [1]: > 20 µM
EC50 [2]: > 20 µM

O=C1CNC(=O)N1c1nc2ccccc2n([C@H]2C[C@H]3CCC[C@@H](C2)N3[C@H]2C[C@@H]3CCC[C@@H](C3)C2)c1=O [Compound B20a, 3-(4-((1R,1′R,3r,3′R,5S,5′S)-[3,9′-bi(9′-azabicyclo[3.3.1]nonan)]-3′-yl)-3-oxo-3,4-dihydroquinoxalin-2-yl)imidazolidine-2,4-dione]
IC50 [1]: > 20 µM
EC50 [2]: > 20 µM

CC(C)C[C@H](CN)CC(=O)O [Pregabalin, pregabalin, reference compound]
% Reversal [mean] ([3]; rat Seltzer model, positive control column, oral 10 mg/kg, 3 h after administration (day 1), 10 mg/kg): 28.0** %
% Reversal [mean] ([3]; rat Seltzer model, positive control column, oral 10 mg/kg, 3 h after administration (day 1), listed as pregabalin, 10 mg/kg): 28.0%
% Reversal [mean] ([3]; rat Seltzer model, positive control, oral 10 mg/kg, 1 h after administration (day 1)): 17.0%
% Reversal [mean] ([3]; rat Seltzer model, positive control, oral 10 mg/kg, 5 h after administration (day 1)): 15.0%
% Reversal [mean] ([3]; rat Seltzer model, positive control, oral 10 mg/kg, pre-administration): 0%
maximum analgesic efficacy of pregabalin (10 mg/kg) as fraction of % reversal of Compound B9a ([3]; versus B9a 1 mg/kg): about 0.76
maximum analgesic efficacy of pregabalin (10 mg/kg) as fraction of % reversal of Compound B9a ([3]; versus B9a 3 mg/kg): about 0.61
maximum analgesic efficacy of pregabalin (10 mg/kg) as fraction of % reversal of Compound B9a ([3]; versus B9a 10 mg/kg): about 0.46

O=c1cncc(-c2nc3ccccc3n([C@H]3C[C@H]4CCC[C@@H](C3)N4[C@H]3C[C@@H]4CCC[C@@H](C4)C3)c2=O)[nH]1 [R3a(i), 1-((1R,1′R,3r,3′R,5S,5′S)-[3,9′-bi(9′-azabicyclo[3.3.1]nonan)]-3′-yl)-3-(6-oxo-1,6-dihydropyrazin-2-yl)quinoxalin-2(1H)-one]
IC50 [1]: > 20 µM

O=c1[nH]nc(-c2nc3ccccc3n([C@H]3C[C@H]4CCC[C@@H](C3)N4[C@H]3C[C@@H]4CCC[C@@H](C4)C3)c2=O)[nH]1 [R6a(i)(i), 1-((1R,1′R,3r,3′R,5S,5′S)-[3,9′-bi(9′-azabicyclo[3.3.1]nonan)]-3′-yl)-3-(5-oxo-4,5-dihydro-1H-1,2,4-triazol-3-yl)quinoxalin-2(1H)-one]
IC50 [1]: > 20 µM

O=C(O)Cn1cccc(-c2nc3ccccc3n([C@H]3C[C@H]4CCC[C@@H](C3)N4[C@H]3C[C@@H]4CCC[C@@H](C4)C3)c2=O)c1=O [R15a(iii), 2-(3-(4-((1R,1′R,3r,3′R,5S,5′S)-[3,9′-bi(9′-azabicyclo[3.3.1]nonan)]-3′-yl)-3-oxo-3,4-dihydroquinoxalin-2-yl)-2-oxopyridin-1(2H)-yl)acetic acid]
IC50 [1]: > 20 µM

C[C@@H]1C[C@@H]2C[C@H](C1)C[C@@H](N1[C@@H]3CCC[C@H]1C[C@@H](n1c(=O)c(-c4cc(C(=O)O)c[nH]c4=O)nc4ccccc41)C3)C2 [R28a(i), 5-(4-((1R,1′R,3r,3′R,5S,5′S,7S)-7-methyl-[3,9′-bi(9′-azabicyclo[3.3.1]nonan)]-3′-yl)-3-oxo-3,4-dihydroquinoxalin-2-yl)-6-oxo-1,6-dihydropyridine-3-carboxylic acid]
IC50 [1]: > 20 µM

CC1(C)[C@H]2CC[C@@H](CCN3[C@@H]4CCC[C@H]3C[C@@H](n3c(=O)c(-c5ccc[nH]c5=O)nc5ccccc53)C4)[C@@H]1C2 [U55a(i), 1-((1R,3S,5S)-9-(2-((1S,2S,5S)-6,6-dimethylbicyclo[3.1.1]heptan-2-yl)ethyl)-9-azabicyclo[3.3.1]nonan-3-yl)-3-(2-oxo-1,2-dihydropyridin-3-yl)quinoxalin-2(1H)-one]
IC50 [1]: > 20 µM

— patent publication US9085561B2, “Cyclic urea- or lactam-substituted quinoxaline-type piperidines as ORL-1 modulators” (priority 2012, dated 2015)
